Laboratory results from patent US11045457B2, “Piperidinyl-3-(aryloxy)propanamides and propanoates” (priority 2018, dated 2021).

What follows are compounds tested against SSTR4 (Homo sapiens (Human), UniProt P31391) (assay: Inhibition of forskolin stimulated cAMP in CHO-K1 cells overexpressing SSTR4). Settings: not given.
Assay type: cell-based
Protocol: Inhibition of Forskolin Stimulated cAMP in Cells Overexpressing SSTR4
This cell-based assay measures the ability of compounds to inhibit forskolin stimulated cAMP in CHO-K1 cells overexpressing SSTR4. CHO-K1 cells overexpressing SSTR4 (CHO-SSTR4) are purchased from DiscoveRx (product code 95-0059C2). The CHO-SSTR4 cells are maintained in F12K media with 10% Fetal Bovine Serum (Hyclone), 1% Pen/Strep (Life Technologies), and 800 μg/mL G418 (Life Technologies). […] The next day, the culture media is removed from the cells and the cells are washed (added then removed) with Kreb's Ringer Buffer (ZenBio, KRB-1000 mL). […] The cells are incubated in […] for 30 minutes at room temperature. Cellular cAMP levels are detected with a HTRF LANCE Ultra cAMP kit (Perkin Elmer, catalog number TRF0264).
The assay is performed in accordance with the manufacturer's instructions. Five μL of diluted Eu-W8044 labeled streptavidin (dilution: 1:50 in cAMP Detection Buffer) is added to each well. Then 5 μL of diluted biotin cAMP (dilution: 1:150 in cAMP Detection Buffer) is added to each well. The plates are covered and allowed to incubate for 60 minutes at room temperature on a shaker. […] The pEC50 values are generated using Activity Base for Screening Data Management.

Sequence of SSTR4 (P31391 whole entry): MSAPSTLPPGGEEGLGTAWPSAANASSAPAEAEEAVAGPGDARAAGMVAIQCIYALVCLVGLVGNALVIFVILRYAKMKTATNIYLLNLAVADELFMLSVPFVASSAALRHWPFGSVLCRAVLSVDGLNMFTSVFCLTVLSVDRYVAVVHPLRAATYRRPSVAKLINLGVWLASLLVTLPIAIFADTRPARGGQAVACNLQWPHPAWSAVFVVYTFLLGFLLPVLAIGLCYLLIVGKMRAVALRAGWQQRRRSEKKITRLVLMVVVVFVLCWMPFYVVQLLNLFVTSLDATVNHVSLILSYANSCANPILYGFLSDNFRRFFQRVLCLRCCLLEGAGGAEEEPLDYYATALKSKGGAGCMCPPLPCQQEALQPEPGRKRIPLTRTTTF

SMILES | SSTR4 Activity pEC50
CN1CCC(NC(=O)C(C)(C)COc2ncccc2Cl)CC1 [Example 38, 3-((3-chloropyridin-2-yl)oxy)-2,2-dimethyl-N-(1-methylpiperidin-4-yl)propanamide] | 7.0
CN1CCC(NC(=O)C(C)(C)COc2ncccc2F)CC1 [Example 39, 3-((3-fluoropyridin-2-yl)oxy)-2,2-dimethyl-N-(1-methylpiperidin-4-yl)propanamide] | 6.3
CN1CCC(NC(=O)C(C)(C)COc2nccc(Cl)c2F)CC1 [Example 44, 3-((4-chloro-3-fluoropyridin-2-yl)oxy)-2,2-dimethyl-N-(1-methylpiperidin-4-yl)propanamide] | 5.9
Cc1cnccc1OCC(C)(C)C(=O)NC1CCN(C)CC1 [Example 50, 2,2-dimethyl-N-(1-methylpiperidin-4-yl)-3-((3-methylpyridin-4-yl)oxy)propanamide] | 6.2
Cc1cc(C#N)cnc1OCC(C)(C)C(=O)NC1CCN(C)CC1 [Example 51, 3-((5-cyano-3-methylpyridin-2-yl)oxy)-2,2-dimethyl-N-(1-methylpiperidin-4-yl)propanamide] | 6.1
CN1CCC(NC(=O)C(C)(C)COc2ccc(C#N)cc2C(F)(F)F)CC1 [Example 73, 3-(4-cyano-2-(trifluoromethyl)phenoxy)-2,2-dimethyl-N-(1-methylpiperidin-4-yl)propanamide] | 7.0
Cc1cnc(OCC(C)(C)C(=O)NC2CCN(C)CC2)c(Cl)c1 [Example 82, 3-((3-chloro-5-methylpyridin-2-yl)oxy)-2,2-dimethyl-N-(1-methylpiperidin-4-yl)propanamide] | 7.0
Cc1ccc(C)c(OCC(C)(C)C(=O)NC2CCN(C)CC2)n1 [Example 83, 3-((3,6-dimethylpyridin-2-yl)oxy)-2,2-dimethyl-N-(1-methylpiperidin-4-yl)propanamide] | 7.3
CCc1cccnc1OCC(C)(C)C(=O)NC1CCN(C)CC1 [Example 85, 3-((3-ethylpyridin-2-yl)oxy)-2,2-dimethyl-N-(1-methylpiperidin-4-yl)propanamide] | 7.1
CCc1nccnc1OCC(C)(C)C(=O)NC1CCN(C)CC1 [Example 87, 3-((3-ethylpyrazin-2-yl)oxy)-2,2-dimethyl-N-(1-methylpiperidin-4-yl)propanamide] | 6.4
Cc1ccnc(OCC(C)(C)C(=O)NC2CCN(C)CC2)c1C [Example 88, 3-((3,4-dimethylpyridin-2-yl)oxy)-2,2-dimethyl-N-(1-methylpiperidin-4-yl)propanamide] | 6.6

Results, then the compound that gave them:

SSTR4 Activity pEC50 | SMILES
6.1 | CN1CCC(NC(=O)C(C)(C)COc2ncc(F)cc2F)CC1 [Example 40, 3-((3,5-difluoropyridin-2-yl)oxy)-2,2-dimethyl-N-(1-methylpiperidin-4-yl)propanamide]
7.2 | CN1CCC(NC(=O)C(C)(C)COc2cnccc2C(F)(F)F)CC1 [Example 42, 2,2-dimethyl-N-(1-methylpiperidin-4-yl)-3-((4-(trifluoromethyl)pyridin-3-yl)oxy)propanamide]
6.9 | CN1CCC(NC(=O)C(C)(C)COc2ccncc2C(F)(F)F)CC1 [Example 43, 2,2-dimethyl-N-(1-methylpiperidin-4-yl)-3-((3-(trifluoromethyl)pyridin-4-yl)oxy)propanamide]
5.8 | CN1CCC(NC(=O)C(C)(C)COc2ncc(F)cc2Cl)CC1 [Example 45, 3-((3-chloro-5-fluoropyridin-2-yl)oxy)-2,2-dimethyl-N-(1-methylpiperidin-4-yl)propanamide]
5.4 | Cc1nc(Cl)ccc1OCC(C)(C)C(=O)NC1CCN(C)CC1 [Example 46, 3-((6-chloro-2-methylpyridin-3-yl)oxy)-2,2-dimethyl-N-(1-methylpiperidin-4-yl)propanamide]
6.8 | Cc1cc(Cl)cnc1OCC(C)(C)C(=O)NC1CCN(C)CC1 [Example 48, 3-((5-chloro-3-methylpyridin-2-yl)oxy)-2,2-dimethyl-N-(1-methylpiperidin-4-yl)propanamide]
7.0 | CCOc1cccnc1OCC(C)(C)C(=O)NC1CCN(C)CC1 [Example 54, 3-((3-ethoxypyridin-2-yl)oxy)-2,2-dimethyl-N-(1-methylpiperidin-4-yl)propanamide]
5.8 | Cc1cccnc1OCC1(C(=O)NC2CCN(C)CC2)CC1 [Example 63, N-(1-methylpiperidin-4-yl)-1-(((3-methylpyridin-2-yl)oxy)methyl)cyclopropane-1-carboxamide]
6.4 | CN1CCC(NC(=O)C(C)(C)COc2ccccc2)CC1 [Example 74, 2,2-dimethyl-N-(1-methylpiperidin-4-yl)-3-phenoxypropanamide]
5.5 | Cc1c(C#N)cccc1OCC(C)(C)C(=O)NC1CCN(C)CC1 [Example 75, 3-(3-cyano-2-methylphenoxy)-2,2-dimethyl-N-(1-methylpiperidin-4-yl)propanamide]
6.4 | Cc1cccc(C#N)c1OCC(C)(C)C(=O)NC1CCN(C)CC1 [Example 77, 3-(2-cyano-6-methylphenoxy)-2,2-dimethyl-N-(1-methylpiperidin-4-yl)propanamide]
7.0 | CN1CCC(NC(=O)C(C)(C)COc2cccc3c2CCC3)CC1 [Example 79, 3-((2,3-dihydro-1H-inden-4-yl)oxy)-2,2-dimethyl-N-(1-methylpiperidin-4-yl)propanamide]
6.1 | CN1CCC(NC(=O)C(C)(C)COc2nccnc2C2CC2)CC1 [Example 80, 3-((3-cyclopropylpyrazin-2-yl)oxy)-2,2-dimethyl-N-(1-methylpiperidin-4-yl)propanamide]
6.3 | CN1CCC(NC(=O)C2(COc3ccccc3Cl)CC2)CC1 [Example 81, 1-((2-chlorophenoxy)methyl)-N-(1-methylpiperidin-4-yl)cyclopropane-1-carboxamide]
7.3 | CCc1cccnc1OCC(C)(C)C(=O)N[C@@H]1CCN(C)C1 [Example 86, (R)-3-((3-ethylpyridin-2-yl)oxy)-2,2-dimethyl-N-(1-methylpyrrolidin-3-yl)propanamide]
6.8 | CN1CCC(NC(=O)C2(COc3ncccc3C3CC3)CCC2)CC1 [Example 89, 1-(((3-cyclopropylpyridin-2-yl)oxy)methyl)-N-(1-methylpiperidin-4-yl)cyclobutane-1-carboxamide]
6.6 | CN1CCC(NC(=O)C(C)(C)COc2ncccc2C(F)F)CC1 [Example 90, 3-((3-(difluoromethyl)pyridin-2-yl)oxy)-2,2-dimethyl-N-(1-methylpiperidin-4-yl)propanamide]
6.0 | Cc1cc(C(F)(F)F)cnc1OCC(C)(C)C(=O)NC1CCN(C)CC1 [Example 91, 2,2-dimethyl-3-((3-methyl-5-(trifluoromethyl)pyridin-2-yl)oxy)-N-(1-methylpiperidin-4-yl)propanamide]

Same assay, conditions: read-out: SSTR4 Activity pEC50 (converted)

EC50 | SMILES
79.4 nM | CN1CCC(NC(=O)C(C)(C)COc2cccnc2C(F)(F)F)CC1 [Example 52, 2,2-dimethyl-N-(1-methylpiperidin-4-yl)-3-((2-(trifluoromethyl)pyridin-3-yl)oxy)propanamide]
